# According to patent US20080160001A1, “Antihypercholesterolemic Formulation with Less Side-Effects” (PFICKER PHARMACEUTICALS LTD., priority 2005, published 2008):
# How the values were obtained:
# [1] = in vivo; cited from earlier work
# patients [2] = settings: cited from earlier work
# [3] = cited from earlier work
# patients [4] = settings: patient with abnormal heart function, 40 mg alone, within 6 months, from 0.70; cited from earlier work
# [5] = tested on: patients (clinical cases); assay: Summary of clinical cases; settings: patient, simvastatin 20 mg; for blood ammonia: before test 72; for cholesterol in the blood: before test 249; for concentration of cholesterol in the blood: before 249
# [6] = Experiment on stability of simvastatin; type: physicochemical; settings: under pH of 5-7
compound,measurement,setting,value
C[N+](C)(C)C[C@H](O)CC(=O)[O-] [L-Carnitine],amount at which no toxic and side effect is found,[1],500 mg/kg body weight/day
COC1=C(OC)C(=O)C(C/C=C(\C)CC/C=C(\C)CC/C=C(\C)CC/C=C(\C)CC/C=C(\C)CC/C=C(\C)CC/C=C(\C)CC/C=C(\C)CC/C=C(\C)CCC=C(C)C)=C(C)C1=O [coenzyme Q10],amount at which no toxic and side effect is found,[1],100 mg/kg body weight/day
same,outcome of patients close to death due to heart failure,patients [2]; 19 patients,becoming better
same,patients with three-year persistence,"patients [2]; added to traditional therapy for heart diseases, traditional therapy 25%",75%
same,solubility in an aqueous medium,[3],very low
O=C(O)CCCCC1CCSS1 (centres unmarked) [lipoic acid],amount at which no toxic and side effect is found,[1],300 mg/day
CC[C@H](C)C(=O)O[C@H]1C[C@@H](C)C=C2C=C[C@H](C)[C@H](CC[C@@H]3C[C@@H](O)CC(=O)O3)[C@H]21 [lovastatin],ejection fraction of heart,patients [4],0.54
CCC(C)(C)C(=O)O[C@H]1C[C@@H](C)C=C2C=C[C@H](C)[C@H](CC[C@@H]3C[C@@H](O)CC(=O)O3)[C@H]21 [simvastatin],ejection fraction,"[5]; 5 weeks, before test 0.59",0.62
same,blood ammonia,[5]; 5 weeks,84 µg/L
same,cholesterol in the blood,[5]; 5 weeks,202 mg/L
same,ejection fraction,"[5]; 10 weeks, before test 0.59",0.60
same,blood ammonia,[5]; 10 weeks,69 µg/L
same,cholesterol in the blood,[5]; 10 weeks,198 mg/L
same,ejection fraction,"[5]; 15 weeks, before test 0.59",0.63
same,blood ammonia,[5]; 15 weeks,77 µg/L
same,cholesterol in the blood,[5]; 15 weeks,194 mg/L
same,ejection fraction,"[5]; 20 weeks, before test 0.59",0.58
same,blood ammonia,[5]; 20 weeks,108 µg/L
same,cholesterol in the blood,[5]; 20 weeks,197 mg/L
same,ejection fraction,"[5]; 25 weeks, before test 0.59",0.62
same,blood ammonia,[5]; 25 weeks,89 µg/L
same,cholesterol in the blood,[5]; 25 weeks,192 mg/L
same,ejection fraction,"[5]; 30 weeks, before test 0.59",0.61
same,blood ammonia,[5]; 30 weeks,93 µg/L
same,cholesterol in the blood,[5]; 30 weeks,194 mg/L
same,ejection fraction,"[5]; 35 weeks, before test 0.59",0.61
same,blood ammonia,[5]; 35 weeks,162 µg/L
same,cholesterol in the blood,[5]; 35 weeks,189 mg/L
same,ejection fraction,"[5]; after 6 months, before 0.59",0.61
same,concentration of blood ammonia,"[5]; after 6 months, before 72",162 ng/mL
same,concentration of cholesterol in the blood,[5]; after 6 months,189 mg/L
same,concentration of cholesterol in the blood,[5]; after one month,202 mg/L
same,stability of simvastatin solid,[6],good stability
Vitamin E,amount at which no toxic and side effect is found,[1],500 mg/day
silymarin,amount at which no toxic and side effect is found,[1],200 mg/kg body weight/day
